US9950026B2, “Methods for reducing oxidative damage” (Cornell Research Foundation, Inc., priority 2004, dated 2018)
Where a SMILES comes first, the peptide text is derived from it. [ ]: non-standard residue; d: D form. Dmt = Cc1cc(O)cc(C)c1C[C@H](N)C(=O)O

Tests used:
[1] = test system: Caco-2 cells; test: Mitochondrial potential (TMRM) after tBHP; format: cell-based, human; details: tBHP 1 mM, SS-02 0.1 μM, 4 h
Experimental: Caco-2 cells were treated with tBHP (1 mM) in the absence or presence of SS-02 (0.1 μM) for 4 h, and then incubated with TMRM and examined under LSCM. In control cells, the mitochondria are clearly visualized as fine streaks throughout the cytoplasm.

[2] = test system: isolated mouse liver mitochondria; test: H2O2 production by isolated mitochondria, luminol chemiluminescence; format: biochemical
[3] = test system: N2A cells; test: Pan-caspase activity (FLICA kit) after tBHP; format: cell-based, murine
Experimental: FIG. 21A-B. SS-31 prevented caspase activation in N2A cells treated with tBHP. […]
[…] All treatments were carried out in quadriplicates. […] Cells were gently lifted from the plates with a cell detachment solution (Accutase, Innovative Cell Technologies, Inc., San Diego, Calif.) and washed twice in PBS. Caspase activity was assayed using the FLICA kit (Immunochemistry Technologies LLC, Bloomington, Minn.) According to the manufacturer's recommendation, cells were resuspended (approx. 5×10^6 cells/ml) in PBS and labeled with pan-caspase inhibitor FAM-VAD-FMK for 1 h at 37° C. under 5% CO2 and protected from the light. Cells were then rinsed to remove the unbound reagent and fixed. Fluorescence intensity in the cells was measured by a […] (Beckman-Coulter XL, Beckman Coulter, Inc., Fullerton, Calif.) using the standard emission filters for green (FL1). For each run, 10,000 individual events were collected and stored in list-mode files for off-line analysis.

[4] = test system: isolated guinea pig hearts; test: Isolated hearts, 18 h cold ischemia followed by warm reperfusion; details: 1 nM SS-31 in cardioplegic solution, 18 h at 4° C.
Experimental: Isolated guinea pig hearts were perfused in a retrograde manner in a Langendorff apparatus with a cardioplegic solution (St. Thomas solution) without or with SS-31 (1 nM) for 3 min. and then clamped and stored at 4° C. for 18 h. Subsequently, the hearts were remounted in the Langendorff apparatus and reperfused with Krebs-Henseleit solution at 34° C. for 90 min. Hearts were then rapidly fixed and paraffin-embedded.
(B) Immunohistochemical analysis of HNE-modified proteins in paraffin sections from guinea pig hearts stored without (a) or with (b) SS-31 (1 nM). (c) Background staining without primary antibody.
Apoptosis was assessed by the TUNEL stain (green) and nuclei are visualized by DAPI (blue).

[5] = test system: mice treated with MPTP; test: MPTP animal model of Parkinson's Disease; format: in vivo; details: MPTP 3 x 10 mg/kg, sacrificed one week later
Experimental: MPTP is a neurotoxin that selectively destroys striatal dopamine neurons and can be used as an animal model of Parkinson's Disease. MPP^+, a metabolite of MPTP, targets mitochondria, inhibits complex I of the electron transport chain and increases ROS production. MPP^+ is used in cell culture studied because cells are unable to metabolize MPTP to the active metabolite. MPTP is used for animal studies.
Three doses of MPTP (10 mg/kg) was given to mice (n=12) 2 h apart. SS-31 was administered 30 min before each MPTP injection, and at 1 h and 12 h after the last MPTP injection. Animals were sacrificed one week later and striatal brain regions were immunostained for tyrosine hydroxylase activity.
Three doses of MPTP (10 mg/kg) was given to mice (n=12) 2 h apart. SS-31 was administered 30 min before each MPTP injection, and at 1 h and 12 h after the last MPTP injection.
Animals were sacrificed one week later and dopamine, DOPAC and HVA levels were quantified by high pressure liquid chromatography.

[6] = test system: N2A cells; test: Phosphatidylserine translocation, Annexin V and propidium iodide staining after tBHP; format: cell-based, murine; details: 50 μM tBHP, 1 nM SS-31, 6 h
Experimental: FIG. 19A-19C. […] N2A cells were incubated with 50 μM tBHP for 6 h and stained with Annexin V and propidium iodide (PI). […] Combined staining with Annexin V and PI (red) indicate late apoptotic cells.
The translocation of phosphatidylserine from the inner leaflet of the plasma membrane to the outer leaflet is observed early in the initiation of apoptosis. This can be observed with Annexin V, a phospholipid binding protein with high affinity for phosphatidylserine.

[7] = test system: N2A cells; test: Nuclear condensation (Hoechst) after tBHP; format: cell-based, murine; details: 50 μM tBHP, 12 h
Experimental: FIG. 20A-20C. […] (A)(a-c; a′-c′) N2A cells were treated with 50 μM tBHP alone or with SS-31 for 12 h. Cells were stained with Hoechst 33342 for 20 min., fixed, and imaged by fluorescent microscopy. (a) Untreated cells show uniformly stained nuclei (a′). […] (c) Cells treated with tBHP and 1 nM SS-31 had less nuclear changes (c′). […] Apoptotic cells were counted using MetaMorph software. *P<0.01 compared to untreated cells; *P<0.01 compared to tBHP alone. […] SH-SY5Y cells were treated with 25 μM tBHP for 24 h. *P<0.01 compared to untreated cells; *P<0.01 compared to tBHP alone.
The morphological appearance of cells treated with tBHP was also consistent with apoptosis. N2A cells incubated with 50 μM tBHP for 12 h became rounded and shrunken (FIG. 20A, panel b). […] These nuclear changes were abolished by concurrent treatment with 1 nM SS-31 (FIG. 20A, panel c′).

[8] = test system: SH-SY5Y cells; test: Mitochondrial function, MTT assay, after tBHP; format: cell-based, human; details: tBHP 50-100 μM, 24 h
Experimental: FIG. 23A-23B. SS-31 protected against tBHP-induced mitochondrial viability. (A) SS-31 protected mitochondrial viability in N2A cells treated with tBHP for 24 h. Mitochondrial viability was evaluated using the MTT assay (*P<0.01 compared to untreated cells, *P<0.05, P<0.01 compared to tBHP alone). […]
Only viable mitochondria containing NADPH dehydrogenase activity are capable of cleaving MTT to the formazan. A 50 μM tBHP induced 50% loss of mitochondrial function in N2A cells (FIG. 23A, […]) and 30% loss of mitochondrial function in SH-SY5Y cells (FIG. 23B, P<0.01). […] Treatment of N2A cells with SS-31 alone had no effect on mitochondrial function.

| Compound | mitochondrial depolarization caused by tBHP [1] | antimycin-induced increase in H2O2 production ([2]; antimycin 1 μM, peptide 1.0 μM) | amount of H2O2 production ([2]; basal, 10 μM) | increase in pan-caspase activity ([3]; 100 μM tBHP, 24 h) | caspase activity ([3]; t-BHP 12 h) | apoptosis in endothelial cells and myocytes (TUNEL) [4] | coronary flow [4] | lipid peroxidation (HNE-modified proteins) [4] | loss of dopamine neurons (tyrosine hydroxylase immunostaining) [5] | striatal DOPAC levels [5] | striatal HVA levels [5] | striatal dopamine levels [5] | Annexin V-positive cells [6] | propidium iodide staining [6] | number of apoptotic cells [7] | nuclear changes (fragmentation and condensation) ([7]; 1 nM SS-31) | tBHP-induced mitochondrial toxicity (MTT) [8] |
| --- | --- | --- | --- | --- | --- | --- | --- | --- | --- | --- | --- | --- | --- | --- | --- | --- | --- |
| 2′,6′-Dmt-Arg-Phe-Lys-NH2 [SS-02] | protected against mitochondrial depolarization | completely blocked | significantly reduced |  |  |  |  |  |  |  |  |  |  |  |  |  |  |
| Cc1cc(O)cc(C)c1C[C@H](NC(=O)[C@H](N)CCCNC(=N)N)C(=O)N[C@@H](CCCCN)C(=O)N[C@@H](Cc1ccccc1)C(N)=O [SS-31, D-Arg-2′6′-Dmt-Lys-Phe-NH2] (H-[dR][Dmt]KF-NH2; N-terminus assumed) |  |  |  | dose-dependently prevented | dose-dependently inhibited | prevents apoptosis | significantly improved | Reduces Lipid Peroxidation | dose-dependently prevented loss | dose-dependently increased | dose-dependently increased | dose-dependently increased | reduction | no propidium iodide staining | dose-dependently reduced | abolished | dose-dependently reduced |
